Measured values taken from ChEMBL document CHEMBL5050851, “Compounds that induce ferroptic cell death” (2020).
The source made the active and inactive calls. The rule behind the calls is not given here.

Columns and labels:
ES-2 [1] = experiment: Antiproliferative activity against human ES2 cells assessed as cell death after 72 hrs by Alamar blue viability assay; format: functional, cell-based; conditions: ES-2, 72 h
HCT-116 [2] = experiment: Antiproliferative activity against human HCT-116 cells assessed as cell death after 72 hrs by Alamar blue viability assay; format: functional, cell-based; conditions: HCT-116, 72 h
[3] = Hemolytic activity in human RBC measured by hemolysis assay; format: toxicity, cell-based; conditions: erythrocyte
Staphylococcus aureus = experiment: Antibacterial activity against Staphylococcus aureus; format: functional
Escherichia coli = experiment: Antibacterial activity against Escherichia coli; format: functional
ES-2 [4] = experiment: Antiproliferative activity against human ES2 cells at 10 uM assessed as time to induce 50% cell death measured by Annexin V/propidium iodide staining method; format: functional
MIA PaCa-2 = experiment: Antiproliferative activity against human MIA PaCa-2 cells at 10 uM assessed as time to induce 50% cell death measured by Annexin V/propidium iodide staining method; format: functional
HCT-116 [5] = experiment: Antiproliferative activity against human HCT-116 cells at 10 uM assessed as time to induce 50% cell death measured by Annexin V/propidium iodide staining method; format: functional
ES-2 [6] = experiment: Antiproliferative activity against human ES2 cells at 10 uM pretreated with 25 uM pan-caspase inhibitor Q-VD-OPh and assessed as induction of cell death measured after 13 hrs; format: functional, cell-based
HCT-116 [7] = experiment: Antiproliferative activity against human HCT-116 cells at 10 uM pretreated with 25 uM pan-caspase inhibitor Q-VD-OPh and assessed as induction of cell death measured after 13 hrs; format: functional, cell-based
ES-2 [8] = experiment: Induction of PARP-1 cleavage in human ES2 cells measured after 1 to 7 hrs; format: functional, cell-based; conditions: time 1-7 hrs
HCT-116 [9] = experiment: Induction of PARP-1 cleavage in human HCT-116 cells measured after 1 to 7 hrs; format: functional, cell-based; conditions: time 1-7 hrs
ES-2 [10] = experiment: Induction of apoptosis in human ES2 cells assessed as change in cell membrane blebbing; format: functional, cell-based
ES-2 [11] = experiment: Induction of apoptosis in human ES2 cells assessed as change in chromatin condensation; format: functional, cell-based
ES-2 [12] = experiment: Induction of ROS production in human ES2 cells at 5 to 25 uM measured by carboxy-H2DCFDA fluorescence assay; format: functional, cell-based; conditions: dose 5-25 µM
HCT-116 [13] = experiment: Induction of ROS production in human HCT-116 cells at 5 to 25 uM measured by carboxy-H2DCFDA fluorescence assay; format: functional, cell-based; conditions: dose 5-25 µM
ES-2 [14] = experiment: Induction of ROS production in human ES2 cells at 10 to 25 uM measured by MitoSox red fluorescence assay; format: functional, cell-based; conditions: dose 10-25 µM
ES-2 [15] = experiment: Induction of ROS-induced lipid peroxidation in human ES2 cells at 10 uM measured after 1 hr; format: functional, cell-based
HCT-116 [16] = experiment: Induction of ROS-induced lipid peroxidation in human HCT-116 cells at 10 uM measured after 1 hr; format: functional, cell-based
4T1 [17] = experiment: Induction of ROS-induced lipid peroxidation in mouse 4T1 cells at 10 uM measured after 1 hr; format: functional, cell-based
ES-2 [18] = experiment: Induction of ROS-induced lipid peroxidation in human ES2 cells at 10 uM pretreated with DFO and measured after 1 hr; format: functional, cell-based
HCT-116 [19] = experiment: Induction of ROS-induced lipid peroxidation in human HCT-116 cells at 10 uM pretreated with DFO and measured after 1 hr; format: functional, cell-based
4T1 [20] = experiment: Induction of ROS-induced lipid peroxidation in mouse 4T1 cells at 10 uM pretreated with DFO and measured after 1 hr; format: functional, cell-based
ES-2 [21] = experiment: Induction of cell death in human ES2 cells at 5 to 25 uM in presence of 250 uM trolox and measured after 14 hrs; format: functional, cell-based; conditions: dose 5-25 µM
ES-2 [22] = experiment: Induction of cell death in human ES2 cells at 5 to 25 uM in presence of 2 uM ferrostatin-1 and measured after 14 hrs; format: functional, cell-based; conditions: dose 5-25 µM
ES-2 [23] = experiment: Induction of cell death in human ES2 cells at 5 to 25 uM in presence of 100 uM DFO and measured after 14 hrs; format: functional, cell-based; conditions: dose 5-25 µM
HCT-116 [24] = experiment: Induction of cell death in human HCT-116 cells at 5 to 25 uM in presence of 250 uM trolox and measured after 10 hrs; format: functional, cell-based; conditions: dose 5-25 µM
HCT-116 [25] = experiment: Induction of cell death in human HCT-116 cells at 5 to 25 uM in presence of 2 uM ferrostatin-1 and measured after 10 hrs; format: functional, cell-based; conditions: dose 5-25 µM
HCT-116 [26] = experiment: Induction of cell death in human HCT-116 cells at 5 to 25 uM in presence of 100 uM DFO and measured after 10 hrs; format: functional, cell-based; conditions: dose 5-25 µM
A549 [27] = experiment: Induction of cell death in human A549 cells at 5 to 25 uM in presence of 250 uM trolox and measured after 12 hrs; format: functional, cell-based; conditions: dose 5-25 µM
A549 [28] = experiment: Induction of cell death in human A549 cells at 5 to 25 uM in presence of 2 uM ferrostatin-1 and measured after 12 hrs; format: functional, cell-based; conditions: dose 5-25 µM
A549 [29] = experiment: Induction of cell death in human A549 cells at 5 to 25 uM in presence of 100 uM DFO and measured after 12 hrs; format: functional, cell-based; conditions: dose 5-25 µM
4T1 [30] = experiment: Induction of cell death in mouse 4T1 cells at 5 to 25 uM in presence of 250 uM trolox and measured after 18 hrs; format: functional, cell-based; conditions: dose 5-25 µM
4T1 [31] = experiment: Induction of cell death in mouse 4T1 cells at 5 to 25 uM in presence of 2 uM ferrostatin-1 and measured after 18 hrs; format: functional, cell-based; conditions: dose 5-25 µM
4T1 [32] = experiment: Induction of cell death in mouse 4T1 cells at 5 to 25 uM in presence of 100 uM DFO and measured after 18 hrs; format: functional, cell-based; conditions: dose 5-25 µM
HCT-116 [33] = experiment: Induction of cell death in human HCT-116 cells at 5 to 25 uM in presence of 5 mM NAC and measured after 10 hrs; format: functional, cell-based; conditions: dose 5-25 µM
A549 [34] = experiment: Induction of cell death in human A549 cells at 5 to 25 uM in presence of 5 mM NAC and measured after 12 hrs; format: functional, cell-based; conditions: dose 5-25 µM
[35] = target: T1, Phospholipid hydroperoxide glutathione peroxidase GPX4 (Homo sapiens) (UniProt P36969); experiment: Inhibition of GPX4 in human ES2 cells at 10 uM measured after 1 hr by phosphotidylcholine hydroperoxide (PCOOH) LC-MS based assay relative to control; format: cell-based
T1 sequence (whole entry): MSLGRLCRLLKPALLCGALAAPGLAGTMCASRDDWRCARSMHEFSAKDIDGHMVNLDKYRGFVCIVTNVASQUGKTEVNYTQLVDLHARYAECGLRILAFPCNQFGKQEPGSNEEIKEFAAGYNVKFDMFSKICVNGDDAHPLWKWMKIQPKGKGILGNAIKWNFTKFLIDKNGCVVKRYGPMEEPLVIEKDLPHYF

[36] = target: T2, Thioredoxin, mitochondrial (Homo sapiens) (UniProt Q99757); experiment: Inhibition of thioredoxin in human HCT-116 cells at 20 uM relative to control; format: cell-based
T2 sequence (whole entry): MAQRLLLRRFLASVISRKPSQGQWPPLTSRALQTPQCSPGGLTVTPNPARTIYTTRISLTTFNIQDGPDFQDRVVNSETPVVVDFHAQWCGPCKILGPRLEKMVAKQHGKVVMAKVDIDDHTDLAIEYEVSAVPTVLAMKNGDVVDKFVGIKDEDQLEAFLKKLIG

[37] = target: T2, Thioredoxin, mitochondrial (Homo sapiens); experiment: Inhibition of human thioredoxin at 0.5 to 10 uM measured after 30 mins relative to control; conditions: dose 0.5-10 µM
MCF-10A = experiment: Antiproliferative activity against human MCF-10A cells after 72 hrs by Alamar blue viability assay; format: functional, cell-based
HFF-1 = experiment: Antiproliferative activity against human HFF-1 cells after 72 hrs by Alamar blue viability assay; format: functional, cell-based; conditions: HFF-1, 72 h
4T1 [38] = experiment: Antitumor activity against mouse 4T1 cells xenografted immunocompetent Balb/c mouse assessed as tumor growth inhibition at 50 mg/kg, ip administered twice a week as 5 doses; format: functional; conditions: 4T1, ip, read-out: TGI
4T1 [39] = experiment: Antitumor activity against mouse 4T1 cells xenografted immunodeficient SCID mouse assessed as tumor growth at 50 mg/kg, ip administered twice a week as 5 doses; format: functional, organism-based
[40] = AUC in C57BL/6 mouse at 40 mg/kg, ip; format: ADME, organism-based; design: dose 40 mg/kg; conditions: in vivo
[41] = Half-life in C57BL/6 mouse at 40 mg/kg, ip; format: ADME, organism-based; conditions: in vivo

Compound: CC1=CC(C)=[N+]2C1=Cc1ccc(CCC(=O)NCCCn3cc(CN4C(=O)C5CC=C([C@@H]6C[C@@H](OC(=O)CI)[C@]7(C)[C@H](C)CC[C@]8(C[C@H](O)C(=O)[C@]87O)[C@H]6C)CC5C4=O)nn3)n1[B-]2(F)F (stereo partly drawn)
- IC50 (ES-2 [1]): 1.5 µM
- IC50 (HCT-116 [2]): 15.7 µM

Compound: C#CCN1C(=O)C2CC=C([C@@H]3C[C@@H](OC(=O)CCl)[C@]4(C)[C@H](C)CC[C@]5(C[C@H](O)C(=O)[C@]54O)[C@H]3C)CC2C1=O (stereo partly drawn)
- IC50 (ES-2 [1]): 4 µM
- IC50 (HCT-116 [2]): 10.5 µM

Compound: C[C@@H]1CC[C@@]23C[C@H](O)C(=O)[C@@]2(O)[C@]1(C)[C@H](OC(=O)CCl)C[C@@H](C1=CCn2c(=O)n(-c4ccccc4)c(=O)n2C1)[C@@H]3C
- IC50 (ES-2 [1]): 1.6 µM
- Activity [3]: Non-Toxic
- MIC (Staphylococcus aureus): > 64 µg/mL
- MIC (Escherichia coli): > 64 µg/mL
- Time (ES-2 [4]): 1 h
- Time (MIA PaCa-2): 1.5 h
- Time (HCT-116 [5]): 7 h
- Activity (ES-2 [6]): Active
- Activity (HCT-116 [7]): Active
- Activity (ES-2 [8]): inactive
- Activity (HCT-116 [9]): inactive
- Activity (ES-2 [10]): inactive
- Activity (ES-2 [11]): inactive
- Activity (ES-2 [12]): Active
- Activity (HCT-116 [13]): Active
- Activity (ES-2 [14]): Active
- Activity (ES-2 [15]): Active
- Activity (HCT-116 [16]): Active
- Activity (4T1 [17]): Active
- Activity (ES-2 [18]): inactive
- Activity (HCT-116 [19]): inactive
- Activity (4T1 [20]): inactive
- Activity (ES-2 [21]): inactive
- Activity (ES-2 [22]): inactive
- Activity (ES-2 [23]): inactive
- Activity (HCT-116 [24]): inactive
- Activity (HCT-116 [25]): inactive
- Activity (HCT-116 [26]): inactive
- Activity (A549 [27]): inactive
- Activity (A549 [28]): inactive
- Activity (A549 [29]): inactive
- Activity (4T1 [30]): inactive
- Activity (4T1 [31]): inactive
- Activity (4T1 [32]): inactive
- Activity (HCT-116 [33]): inactive
- Activity (A549 [34]): inactive
- inhibition [35]: inactive
- inhibition [36]: Active
- inhibition [37]: Active
- IC50 (MCF-10A): 3.1 µM
- IC50 (HFF-1): 4.1 µM
- inhibition in vivo at 50 mg/kg (4T1 [38]): 40%
- Activity (4T1 [39]): inactive
- AUC [40]: 7040 ng·h/mL
- half-life [41]: 9.96 min
- IC50 (HCT-116 [2]): 3.5 µM

Compound: C[C@@H]1CC[C@@]23C[C@H](O)C(=O)[C@@]2(O)[C@]1(C)[C@H](OC(=O)CF)C[C@@H](C1=CCn2c(=O)n(-c4ccccc4)c(=O)n2C1)[C@@H]3C
- IC50 (ES-2 [1]): 34 µM
- IC50 (HCT-116 [2]): > 100 µM

Compound: CC(=O)O[C@H]1C[C@@]23CC[C@@H](C)[C@@](C)([C@H](OC(=O)CCl)C[C@@H](C4=CCn5c(=O)n(-c6ccccc6)c(=O)n5C4)[C@@H]2C)[C@]3(O)C1=O
- IC50 (ES-2 [1]): 1.4 µM
- IC50 (HCT-116 [2]): 3.9 µM

Compound: CC1=CC(C)=[N+]2C1=Cc1ccc(CCC(=O)NCCCn3cc(CN4C(=O)C5CC=C([C@@H]6C[C@@H](OC(=O)CCl)[C@]7(C)[C@H](C)CC[C@]8(C[C@H](O)C(=O)[C@]87O)[C@H]6C)CC5C4=O)nn3)n1[B-]2(F)F (stereo partly drawn)
- IC50 (ES-2 [1]): 5.3 µM
- IC50 (HCT-116 [2]): 14.2 µM

Compound: CO[C@H]1C[C@@]23CC[C@@H](C)[C@@](C)([C@H](OC(=O)CCl)C[C@@H](C4=CCn5c(=O)n(-c6ccccc6)c(=O)n5C4)[C@@H]2C)[C@]3(O)C1=O
- IC50 (ES-2 [1]): 1.9 µM
- IC50 (HCT-116 [2]): 3 µM
